Assay results from PubChem BioAssay (NCI).
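Values below derive from 48-hour exposures of cells grown in 96-well plates, with endpoints linearly interpolated between the two concentrations bracketing the appropriate inhibition level. GI50: concentration for 50% inhibition of growth. TGI: concentration producing complete growth inhibition.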

Key:
Experiment in all cases: NCI-60 cell line screen, 48 h
A498 renal = test system: A498 renal
ACHN renal = test system: ACHN renal
DU-145 prostate = test system: DU-145 prostate
LOX IMVI melanoma = test system: LOX IMVI melanoma
NCI-H522 lung = test system: NCI-H522 lung
OVCAR-4 ovarian = test system: OVCAR-4 ovarian
SK-MEL-2 melanoma = test system: SK-MEL-2 melanoma
SK-MEL-28 melanoma = test system: SK-MEL-28 melanoma
SK-OV-3 ovarian = test system: SK-OV-3 ovarian
SN12C renal = test system: SN12C renal

| SMILES | GI50 (A498 renal) | TGI (A498 renal) | GI50 (ACHN renal) | TGI (ACHN renal) | GI50 (DU-145 prostate) | TGI (DU-145 prostate) | GI50 (LOX IMVI melanoma) | TGI (LOX IMVI melanoma) | GI50 (NCI-H522 lung) | TGI (NCI-H522 lung) | GI50 (OVCAR-4 ovarian) | TGI (OVCAR-4 ovarian) | GI50 (SK-MEL-2 melanoma) | TGI (SK-MEL-2 melanoma) | GI50 (SK-MEL-28 melanoma) | TGI (SK-MEL-28 melanoma) | GI50 (SK-OV-3 ovarian) | TGI (SK-OV-3 ovarian) | GI50 (SN12C renal) | TGI (SN12C renal) |
| --- | --- | --- | --- | --- | --- | --- | --- | --- | --- | --- | --- | --- | --- | --- | --- | --- | --- | --- | --- | --- |
| NC(=O)C(=CNc1nc(-c2ccc(Cl)c(Cl)c2)cs1)C(N)=O | > 100 µM | > 100 µM | > 100 µM | > 100 µM | > 100 µM | > 100 µM | > 100 µM | > 100 µM | 11.8 µM | > 100 µM | 62.4 µM | > 100 µM | 75.6 µM | > 100 µM | > 100 µM | > 100 µM | > 100 µM | > 100 µM | > 100 µM | > 100 µM |
| CC(=O)O[C@@H]1C[C@]2(C(C)C)O[C@@]1(C)[C@@H]1CCC(C)=C1[C@@H]2OC(=O)/C=C/c1ccccc1 | 2.19 µM | 6.59 µM | 4.49 µM | > 100 µM | 70.1 µM | > 100 µM | 29.4 µM | > 100 µM | 20.7 µM | > 100 µM | 11.6 µM | > 100 µM | > 100 µM | > 100 µM | 69.9 µM | > 100 µM | 71.3 µM | > 100 µM | 10.4 µM | > 100 µM |
| O=C1/C(=C\c2cccn2Cc2ccccc2)c2ccccc2N1c1c(Cl)cccc1Cl | > 100 µM | > 100 µM | 7.9 µM | > 100 µM | > 100 µM | > 100 µM | > 100 µM | > 100 µM | > 100 µM | > 100 µM | 0.196 µM | > 60.4 µM | 2.4 µM | > 30.1 µM | > 100 µM | > 100 µM | > 100 µM | > 100 µM | > 100 µM | > 100 µM |
| O=C(Nc1ccc(Cl)cc1F)c1cc(Br)ccc1O | 0.23 µM | 0.709 µM | 1.12 µM | 16.7 µM | 1.89 µM | > 100 µM | 0.769 µM | 4.92 µM | 0.481 µM | 9.23 µM | 0.732 µM | > 100 µM | 0.467 µM | 3.18 µM | 0.563 µM | 3.19 µM | 0.763 µM |  | 0.788 µM | 8.58 µM |
| O=C(Nc1cccc(Cl)c1Cl)c1cccc(NC2=C(Cl)C(=O)N(Cc3ccccc3)C2=O)c1 | 36.1 µM | > 100 µM | 54.7 µM | > 100 µM | 21.2 µM | > 100 µM | 13.1 µM | > 100 µM | 12.6 µM | 54.7 µM | 57.7 µM | > 100 µM | 16.9 µM | 58.6 µM | > 100 µM | > 100 µM | > 100 µM | > 100 µM | 30.2 µM | > 100 µM |
| O=c1[nH]c2cc(Cl)ccc2n1C1CCN(CCCC(c2ccc(F)cc2)c2ccc(F)cc2)CC1 | 1.34 µM | 2.74 µM | 1.54 µM | 2.87 µM | 1.82 µM | 3.32 µM | 1.56 µM | 2.89 µM | 1.82 µM | 3.64 µM | 1.51 µM | 2.9 µM | 1.7 µM | 3.35 µM | 1.47 µM | 3.1 µM | 1.82 µM | 3.72 µM | 1.78 µM | 3.27 µM |
| Cc1cc(NC(=O)c2ccc(C)c(Nc3nccc(-c4cccnc4)n3)c2)cc(-n2cnc(C)c2)c1 | 1.86 µM | 7.93 µM | 0.0734 µM | 3.96 µM | 1.96 µM | 9.06 µM | 4.09 µM | 13 µM | 4.89 µM | 15.3 µM | 0.999 µM | 2.19 µM | 5.03 µM | 12.9 µM | 1.71 µM | 6.19 µM | 1.73 µM | 4.93 µM | 0.005 µM | 12.8 µM |
| COc1cc2c(cc1OC)C13CCN4CC5=CCOC6CC(=O)N2C1C6C5CC43O (configuration not stated) |  | > 100 µM |  | > 100 µM |  | > 100 µM |  | > 100 µM |  | > 100 µM |  | > 100 µM |  | > 100 µM |  | > 100 µM |  | > 100 µM |  | > 100 µM |
| CC(=O)c1c(CBr)n([O-])c2ccccc2[n+]1=O | 23.6 µM | 54.8 µM | 8.12 µM | 20.4 µM | 12.8 µM | 25.5 µM | 10.8 µM | 23 µM | 2.93 µM | 8.91 µM | 3.78 µM | 13.2 µM | 14.4 µM | 30 µM | 13 µM | 27.7 µM | 22.9 µM | 71 µM | 14.1 µM | 27.3 µM |
| OCCCCC#Cc1ccccc1C#Cc1cccc(O)c1 | 18.5 µM | 39.4 µM | 19.1 µM | 41.6 µM | 17.4 µM | 40.9 µM | 16.7 µM | 30.9 µM | 14.3 µM | 28.9 µM | 16.1 µM | 32.1 µM | 18.6 µM | 38.8 µM | 14.2 µM | 28.2 µM | 19.1 µM | 43.3 µM | 17.9 µM | 40 µM |
| C#CC(=O)Nc1cccc(Nc2nc3c(c(NCc4ccccc4)n2)CCCC3)c1 | 0.115 µM | 0.918 µM | < 0.0113 µM | < 0.0317 µM | 0.446 µM | 1.95 µM | < 0.01 µM | < 0.01 µM | < 0.01 µM | < 0.01 µM | 0.291 µM | 1.02 µM | 0.543 µM | 1.98 µM | 1.49 µM | 2.97 µM | 0.336 µM | 0.793 µM |  |  |
| O=C(O)Cc1c(O)ccc2ccccc12 |  | > 100 µM |  | > 100 µM |  | > 100 µM |  | > 100 µM |  | > 100 µM |  | > 100 µM |  | > 100 µM |  | > 100 µM |  | > 100 µM |  | > 100 µM |
| CN(C)c1ccc2nc3ccc(=O)cc-3sc2c1 | 11 µM | > 92.8 µM | 0.274 µM | > 49.1 µM | 1.8 µM | 6.17 µM | 0.633 µM | > 63.8 µM | 0.835 µM | 7.85 µM | 1.41 µM | 36.5 µM | 3.51 µM | 25.8 µM | 4.6 µM | 27.1 µM | 6.02 µM | > 100 µM | 0.865 µM | > 79 µM |
